compound: O=C(c1cc(Cc2n[nH]c(=O)c3ccccc23)ccc1F)N1CCN(C(=O)C2CC2)CC1 [Olaparib] + CCNC(=O)c1noc(-c2cc(C(C)C)c(O)cc2O)c1-c1ccc(CN2CCOCC2)cc1 [Luminespib] (partner 0.01 µM); assay: relative viability (nuclei count vs DMSO), 5 days (fraction); higher = more cells survive; conditions: first compound 0.08 µM
Summary of the method: (§1)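 After 5 days of treatment, lung cancer cells in 1536-well plates were fixed and stained in a single step (final 0.05% Triton X-100, 1% formaldehyde, 1 ug/ml Hoechst) and their nuclei counted on 4× images. Treatment had been applied by pin tool the day after seeding as one drug alone or as a fixed anchor-drug dose with five library-drug doses (not always all listed) in √10 steps. Relative viability is the nuclei count of treated wells divided by that of vehicle wells, and values are medians of duplicate plates.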

Cell Line | relative viability
ABC-1 | 0.816
CAL-12T | 0.604
COR-L23 | 0.722
COR-L 105 | 0.736
ChaGo-K-1 | 0.596
EKVX | 1.03
EMC-BAC-2 | 1.12
EPLC-272H | 0.291
H3255 | 0.885
HARA | 1.22
HCC-15 | 0.462
HCC-44 | 1.44
HCC-827 | 0.544
HOP-62 | 1
LC-2-ad | 1.11
LCLC-97TM1 | 0.756

Cell Line | relative viability
LCLC-103H | 1.21
LK-2 | 0.176
LOU-NH91 | 0.341
LU99A | 0.249
LXF-289 | 0.784
NCI-H23 | 0.229
NCI-H358 | 0.324
NCI-H522 | 1.23
NCI-H650 | 0.924
NCI-H661 | 1.02
NCI-H1395 | 0.633
NCI-H1563 | 1.21
NCI-H1623 | 0.492
NCI-H2342 | 0.685
SW 900 | 0.171

same assay, conditions: first compound 0.253 µM

Cell Line | relative viability
201T | 0.959
A-427 | 0.856
BEN | 0.308
CAL-12T | 0.376
COR-L23 | 0.539
COR-L 105 | 0.782
ChaGo-K-1 | 0.515
EKVX | 0.831
EMC-BAC-2 | 1.02
EPLC-272H | 0.321
H3255 | 0.832
HARA | 0.531
HCC-15 | 0.372
HCC-44 | 0.984
HCC-827 | 0.585
HOP-62 | 0.809
LC-2-ad | 0.865

Cell Line | relative viability
LCLC-97TM1 | 0.651
LCLC-103H | 0.805
LK-2 | 0.212
LOU-NH91 | 0.36
LU99A | 0.254
LXF-289 | 0.635
NCI-H23 | 0.211
NCI-H358 | 0.253
NCI-H522 | 1.09
NCI-H650 | 0.816
NCI-H661 | 0.869
NCI-H1395 | 0.533
NCI-H1563 | 0.475
NCI-H1623 | 0.484
NCI-H2342 | 0.561
SW 900 | 0.17

same assay, conditions: first compound 2.53 µM

Cell Line | relative viability
201T | 1.03
A-427 | 0.859
BEN | 0.283
CAL-12T | 0.365
COR-L23 | 0.448
COR-L 105 | 0.595
ChaGo-K-1 | 0.411
EKVX | 0.791
EMC-BAC-2 | 0.955
EPLC-272H | 0.254
H3255 | 0.907
HARA | 0.8
HCC-15 | 0.346
HCC-44 | 0.449
HCC-827 | 0.629
HOP-62 | 0.744
LC-2-ad | 0.765

Cell Line | relative viability
LCLC-97TM1 | 0.712
LCLC-103H | 1.19
LK-2 | 0.214
LOU-NH91 | 0.346
LU99A | 0.21
LXF-289 | 0.721
NCI-H23 | 0.2
NCI-H358 | 0.24
NCI-H522 | 0.781
NCI-H650 | 0.577
NCI-H661 | 0.878
NCI-H1395 | 0.62
NCI-H1563 | 0.538
NCI-H1623 | 0.384
NCI-H2342 | 0.712
SW 900 | 0.184

same assay, conditions: first compound 8 µM

Cell Line | relative viability
201T | 0.972
A-427 | 0.898
ABC-1 | 0.354
BEN | 0.31
CAL-12T | 0.355
COR-L23 | 0.186
COR-L 105 | 0.565
ChaGo-K-1 | 0.29
EKVX | 0.784
EMC-BAC-2 | 0.646
EPLC-272H | 0.279
H3255 | 0.819
HARA | 0.523
HCC-15 | 0.191
HCC-44 | 0.411
HCC-827 | 0.368
HOP-62 | 0.476

Cell Line | relative viability
LC-2-ad | 0.811
LCLC-97TM1 | 0.637
LCLC-103H | 0.769
LK-2 | 0.181
LOU-NH91 | 0.332
LU99A | 0.206
LXF-289 | 0.567
NCI-H23 | 0.186
NCI-H358 | 0.206
NCI-H522 | 0.824
NCI-H650 | 0.533
NCI-H661 | 0.619
NCI-H1395 | 0.447
NCI-H1563 | 0.481
NCI-H1623 | 0.331
NCI-H2342 | 0.649
SW 900 | 0.197

compound: CC(C)C[C@H](NC(=O)[C@H](CCc1ccccc1)NC(=O)CN1CCOCC1)C(=O)N[C@@H](Cc1ccccc1)C(=O)N[C@@H](CC(C)C)C(=O)[C@@]1(C)CO1 [Carfilzomib] + C[C@@H](Oc1cc(-c2cnn(C3CCNCC3)c2)cnc1N)c1c(Cl)ccc(F)c1Cl [Crizotinib] (partner 1 µM); assay: as above; conditions: first compound 0.001 µM
Summary of the method: as §1

Cell Line | relative viability
201T | 1.02
A549 | 0.802
A-427 | 0.837
ABC-1 | 1.15
BEN | 0.898
COR-L23 | 0.71
COR-L 105 | 0.84
Calu-6 | 0.747
EBC-1 | 0.212
EKVX | 0.936
EMC-BAC-2 | 0.779
EPLC-272H | 0.441
H3255 | 0.962
HARA | 1.05
HCC-15 | 0.765
HCC-44 | 0.811
HCC-78 | 0.323

Cell Line | relative viability
HCC-366 | 0.396
HCC-827 | 1.02
HOP-62 | 0.952
IA-LM | 0.956
LC-2-ad | 0.508
LCLC-97TM1 | 0.354
LCLC-103H | 1.03
LOU-NH91 | 0.818
LU99A | 0.585
LXF-289 | 0.797
NCI-H23 | 0.637
NCI-H358 | 0.712
NCI-H650 | 0.677
NCI-H661 | 0.861
NCI-H1299 | 1.01
NCI-H1563 | 0.939
NCI-H1703 | 0.579

same assay, conditions: first compound 0.003162 µM

Cell Line | relative viability
201T | 1.1
A549 | 0.776
A-427 | 0.996
ABC-1 | 0.805
BEN | 1.18
CAL-12T | 0.814
COR-L23 | 0.828
COR-L 105 | 0.743
Calu-6 | 0.834
ChaGo-K-1 | 1.2
EBC-1 | 0.18
EKVX | 0.819
EMC-BAC-2 | 0.896
EPLC-272H | 1.07
H3255 | 1.04
HARA | 1.06
HCC-15 | 0.85
HCC-44 | 0.824
HCC-78 | 0.383

Cell Line | relative viability
HCC-366 | 0.518
HCC-827 | 0.953
HOP-62 | 0.966
IA-LM | 0.796
LC-2-ad | 0.485
LCLC-97TM1 | 0.339
LCLC-103H | 1.01
LK-2 | 0.237
LOU-NH91 | 0.798
LU99A | 0.667
LXF-289 | 0.857
NCI-H23 | 0.612
NCI-H358 | 0.802
NCI-H650 | 0.996
NCI-H661 | 0.971
NCI-H1299 | 0.966
NCI-H1563 | 0.902
NCI-H1703 | 0.73

same assay, conditions: first compound 0.01 µM

Cell Line | relative viability
201T | 1.04
A549 | 0.743
A-427 | 0.862
ABC-1 | 0.385
BEN | 0.923
CAL-12T | 0.72
COR-L23 | 0.731
COR-L 105 | 0.608
Calu-6 | 0.811
ChaGo-K-1 | 1.18
EBC-1 | 0.183
EKVX | 0.941
EMC-BAC-2 | 0.928
EPLC-272H | 0.811
H3255 | 1.07
HARA | 1.12
HCC-15 | 0.844
HCC-44 | 0.866
HCC-78 | 0.351

Cell Line | relative viability
HCC-366 | 0.674
HCC-827 | 0.985
HOP-62 | 0.845
IA-LM | 0.502
LC-2-ad | 0.428
LCLC-97TM1 | 0.352
LCLC-103H | 1.07
LK-2 | 0.16
LOU-NH91 | 0.77
LU99A | 0.584
LXF-289 | 0.855
NCI-H23 | 0.587
NCI-H358 | 0.525
NCI-H650 | 0.698
NCI-H661 | 1.01
NCI-H1299 | 0.981
NCI-H1563 | 0.897
NCI-H1703 | 0.168

same assay, conditions: first compound 0.03162 µM

Cell Line | relative viability
201T | 1.06
A549 | 0.182
A-427 | 0.212
ABC-1 | 0.177
BEN | 0.757
CAL-12T | 0.18
COR-L23 | 0.0647
COR-L 105 | 0.262
Calu-6 | 0.334
ChaGo-K-1 | 0.634
EBC-1 | 0.131
EKVX | 0.887
EMC-BAC-2 | 0.661
EPLC-272H | 0.11
H3255 | 0.761
HARA | 0.0563
HCC-15 | 0.545
HCC-44 | 0.614
HCC-78 | 0.345

Cell Line | relative viability
HCC-366 | 0.299
HCC-827 | 0.858
HOP-62 | 0.099
IA-LM | 0.0235
LC-2-ad | 0.371
LCLC-97TM1 | 0.0915
LCLC-103H | 0.888
LK-2 | 0.262
LOU-NH91 | 0.434
LU99A | 0.291
LXF-289 | 0.148
NCI-H23 | 0.153
NCI-H358 | 0.104
NCI-H650 | 0.577
NCI-H661 | 0.985
NCI-H1299 | 0.472
NCI-H1563 | 0.711
NCI-H1703 | 0.0733

same assay, conditions: first compound 0.1 µM

Cell Line | relative viability
201T | 0.91
A549 | 0.0494
A-427 | 0.122
ABC-1 | 0.172
BEN | 0.311
CAL-12T | 0.0912
COR-L23 | 0.0659
COR-L 105 | 0.17
Calu-6 | 0.0815
ChaGo-K-1 | 0.303
EBC-1 | 0.111
EKVX | 0.348
EMC-BAC-2 | 0.229
EPLC-272H | 0.0759
H3255 | 0.186
HARA | 0.0555
HCC-15 | 0.185
HCC-44 | 0.149
HCC-78 | 0.144

Cell Line | relative viability
HCC-366 | 0.016
HCC-827 | 0.271
HOP-62 | 0.0686
IA-LM | 0.0632
LC-2-ad | 0.279
LCLC-97TM1 | 0.129
LCLC-103H | 0.204
LK-2 | 0.209
LOU-NH91 | 0.277
LU99A | 0.16
LXF-289 | 0.0565
NCI-H23 | 0.134
NCI-H358 | 0.144
NCI-H650 | 0.132
NCI-H661 | 0.867
NCI-H1299 | 0.178
NCI-H1563 | 0.397
NCI-H1703 | 0.0878

— the supplement of paper PMC10307832
